Here are results for 65 compounds from a melting point compilation (Tetko et al.; mined from patent text by program, amines drawn as free bases though some values may be those of a salt).

As a reminder, the melting point is the temperature of the solid-liquid transition.

As for `COc1ccc(C2=CS(=O)CCC2)cc1OC1CCCC1` (stereo not given), the melting point fell in the range of 96 to 98 °C.
As for `Cc1ccc(-c2ccc(NN)nn2)c(OCC(O)CNC(C)(C)C)c1` (stereo not given), the figure is 145 to 155 °C.
As for `COc1cc(C)nc(-c2cccc(-c3ccccc3C)n2)n1`, the figure is 103 °C.
In the case of `CCOC(=O)Cc1c2ccccc2n2c(-c3cccs3)nccc12` it was 94 to 95 °C; in that of `C=CCCN1C(=O)C2C3CCC(O3)C2C1=O` (stereo not given), 64 to 65 °C; in that of `O=C1CN2Cc3cc(OCCCC(=O)N(CCO)CC4CCCCC4)ccc3N=C2N1`, 223 to 224 °C.
`CN(N)c1nc(-c2ccccc2)c2cc(Cl)ccc2n1` came in with a melting point of 156 °C.
As for `CCc1cc(NC(C)=O)c(C=O)c(CC)n1`, the figure is 91 to 92 °C.
As for `CCOC(=O)Cn1c2c([nH]c(=O)c1=O)CCC1=C2C=C(n2ccc(CN3CCN(C(c4ccccc4)c4ccccc4)CC3)c2)CC1`, the figure is above 200 °C; as for `NS(=O)(=O)c1ccccc1S(=O)(=O)N1CCC1`, 121 to 123 °C.
As for `COc1cccc2c1OCN(CCc1ccc(Cl)cc1)C2`, the figure is 87 to 88 °C; as for `CC1c2cc(O)ccc2-c2ccc(O)cc21`, 192 to 196 °C; as for `N#Cc1ccc(C=Nc2c3c(nc4ccccc24)CCCC3)cc1`, 204 to 205 °C.
With `Cc1cccc2c(C#N)csc12`, the melting point was in the range of 82 to 84 °C.
As for `Cn1c2ccccc2c2c(=O)n([C@@H]3CN4CCC3CC4)ccc21`, the figure is 251 to 252 °C; as for `Nc1c(CCO)cccc1C(=O)c1ccc(Br)cc1`, 126 to 127 °C; as for `Clc1ccc2c(c1)N(CC1CN3CCC1CC3)c1ccccc1S2` (stereo not given), 122 °C.
In the case of `CC(=O)c1cn(C)cc(-c2cccc(Br)c2)c1=O` it was 192 to 194 °C; in that of `O=C1C(=Cc2cccc(Cl)c2)SC(c2cccc(Cl)c2)N1CCCN1CCCCC1` (stereo not given), 137 to 139 °C; in that of `CCc1cccc(CC)c1NS(=O)(=O)c1ccc(C)cc1`, 130 to 131 °C.
In the case of `NC(=O)c1nc(-c2cccc(O)c2)nc2c1[nH]c(=O)n2[C@H]1CC[C@H](N)CC1` it was 299 to 301 °C; in that of `CC(C)c1cccc(C(C)C)c1NC(=O)NCC1(O)CCCc2ccccc21` (stereo not given), 170 to 171 °C.
Regarding `CCCc1nc(C(C)O)c(C(=O)O)n1Cc1ccc(-c2ccccc2-c2nnn[nH]2)cc1` (stereo not given), the melting point was 198 to 201 °C.
As for `CCC(CC)O[C@@H]1C=C(C(=O)OC)C[C@H](CC(O)CN=[N+]=[N-])[C@H]1NC(C)=O` (stereo not given in full), the figure is 92 to 93 °C.
In the case of `Nc1cc(=O)n(Cc2cc(Cl)ccc2F)[nH]1` it was 160 °C; in that of `COC(=O)Oc1ccc([N+](=O)[O-])cc1`, 111 to 112 °C; in that of `Nc1c(C(=O)O)ccc(F)c1F`, 207 to 208 °C.
The compound `Cc1cc(C(=S)CN=[N+]=[N-])ccc1O` came in with a melting point of 124 to 129 °C.
In the case of `CC(C)(C)C(=O)c1ccc(S(=O)(=O)C[N+](=O)[O-])s1` it was 98 to 99 °C.
In the case of `Cc1cccc2c1oc1c(NC(=O)c3ccccn3)n(C)nc12` it was 167 to 168 °C.
As for `CCCC[C@H](NC(=O)[C@H](CC(C)C)NC(=O)OCc1ccccc1)C(=O)CCCc1ccco1`, the figure is 62 to 64 °C; as for `Nc1ncc(-c2cccc(-n3cnc4cc(-c5ccoc5)ccc43)c2)cn1`, 222 to 223 °C; as for `O=[N+]([O-])c1cc(Cl)c(Cl)cc1O`, 63 to 65 °C.
In turn, `Cn1c(=O)n(Cc2ccccc2)c(=O)c2cc(C(=O)O)ccc21` gave a melting point of 227 °C.
As for `COc1ccc(C2c3[nH]c4ccccc4c3CCN2C(=O)C=Cc2ccc(C(F)(F)F)cc2)cc1` (stereo not given), the figure is 130 to 135 °C; as for `O=C(C(=O)N(CCN1CCOCC1)S(=O)(=O)C(F)(F)F)N(CCN1CCOCC1)S(=O)(=O)C(F)(F)F`, 62 to 64 °C; as for `O=C(c1ccc(O)c(F)c1)N(c1ccc(O)cc1)c1ccc(F)cc1`, 110 to 112 °C.
In the case of `O=C(O)CCCc1cc2nc(Cl)ccc2n1S(=O)(=O)c1ccc(Cl)cc1Cl` it was 154 to 155 °C.
The compound `Cc1csc(-c2ccc(C(=O)Nc3ccc4cc(CN5CCCC5)cnc4c3C)cc2)c1` registered a melting point of 224 to 225 °C.
Compound `Cn1c(C(F)(F)F)cc(=O)n(-c2ccc3snc(C4OCC5(CO4)CO5)c3c2)c1=O` (stereo not given) yielded a melting point of 203 to 206 °C.
As for `COC(=O)c1ccccc1-n1c(CCl)nc2ccc(Br)cc2c1=O`, the figure is 235 to 237 °C; as for `CNc1cc([N+](=O)[O-])cc([N+](=O)[O-])c1`, 153 to 154 °C; as for `O=C(O)CCC(=NO)c1ccc2c3c(oc2c1)CCCC3`, 148 to 150 °C.
`CCC(=O)NC1(c2ccccc2Cl)C(=O)N(Cc2ccc(C(=O)NC(C)(C)C)cc2OC)c2ccc(Cl)cc21` (stereo not given): the melting point was 249 °C.
As for `COc1ccc(-c2[nH]nc3c2C(=O)c2c(NC(=O)CN4CCC(C(N)=O)CC4)cccc2-3)cc1`, the figure is above 300 °C; as for `C=CC(=O)Oc1ccc(C(=O)c2ccccc2)cc1`, 44 to 46 °C.
In the case of `CCOC(=O)c1cc(OC)c(OCC)c(OCC)c1-c1c(C(=O)OCC)cc(OC)c2c1OCO2` it was 73 to 74.5 °C.
In turn, `CCCC1CCN(CCCCC(=O)c2cc(Cl)c(N)cc2OCc2cc(OC)cc(OC)c2)CC1` yielded a melting point of 119 to 120 °C.
As for `Clc1cc(CBr)c2noc(-c3ccc(Br)cc3)c2c1`, the figure is 147 to 150 °C.
As for `COc1cc(CC(=O)NCCOc2scc(C)c2C)ccc1OCCN`, the figure is 85 to 87 °C; as for `OC(Cc1ccc2ccccc2n1)C(Cl)(Cl)Cl` (stereo not given), 156 to 158 °C.
As for `COc1cc(OC2OC(CO)C(O)C(O)C2O)ccc1C=Cc1cc(C=Cc2ccc3cc[nH]c3c2)n[nH]1` (stereo not given), the figure is 194 to 199 °C; as for `C#CCc1c(Cl)nc(N)nc1Cl`, 211 to 212 °C; as for `CCc1nc(C)cn1C(=O)c1c(Cl)cccc1Cl`, 112 to 114 °C.
`O=C(O)c1ccc(CCn2ccn([C@H]3CCc4c(F)cc(F)cc4C3)c2=S)cc1`: the melting point was in the range of 222 to 224 °C.
Take `CCCCC[C@@H](CNC(=O)Nc1c(OCC)ccc2c1CCC2)c1cccc2c1OCO2`: the melting point fell in the range of 108 to 109 °C.
`CC1(C)CON(Cc2ccc(N3C(=O)C4=C(CCCC4)C3=O)cc2Cl)C1=O` returned a melting point of 102 to 104 °C.
In the case of `CNc1nc(N)ncc1-c1ccc(Cl)cc1Cl` it was 189 to 190 °C; in that of `O=C(/C=C/c1ccccc1)Nc1cccc(F)c1`, 110 °C; in that of `Cc1c(O)cc2c(c1Cl)CCC2(C)C`, 109 to 110 °C.
In turn, `O=c1c2c(Br)cc(Br)cc2n(Cc2ccccc2)c(=O)n1Cc1ccccc1Cl` came in with a melting point of 202 to 205 °C.
As for `Cn1c(CC(=O)O)ccc1C(=O)c1ccc(N)cc1`, the figure is 173 to 175 °C.
In turn, `Cc1c(CCC(=O)O)oc2cccc(O)c12` yielded a melting point of 114 to 117 °C.
As for `CCC(C(=O)c1ccc(Cl)cc1)n1ncn(-c2ccc(N3CCN(C(C)=O)CC3)cc2)c1=O` (stereo not given), the figure is 125 °C; as for `Fc1cccc(C2OC3(CCN(Cc4ccccc4)CC3)N3CCCCC23)c1` (stereo not given), 113 to 115 °C.
